The record followed here is patent publication US12338291B2, “Humanized antibody molecules to CD138 and uses thereof” (VISTERRA, INC., priority 2019, dated 2025).

The test system of this series is MM1.S (Luc) cells.

Procedure: The mice (N=9 per group) were distributed to ensure that the mean whole-body tumor burden for all groups was within 10% of the overall mean whole-body tumor burden for the study population. Treatment was initiated on day 14 post tumor implant. […] Treatment in all groups was discontinued at Day 53; surviving animals were monitored for an additional 3 weeks out to Day 73 (discontinuation phase of the study).
Whole body tumor burden was monitored by bioluminescence. […] BLI was performed using an IVIS Lumina S5 (PerkinElmer, MA). Animals were imaged five at a time under 1-2% isoflurane gas anesthesia. […] Large binning of the CCD chip was used, and the exposure time was adjusted (5 seconds to 2 minutes) to obtain at least several hundred counts per image and to avoid saturation of the CCD chip Animals were imaged once weekly at staging and on days 14, 21, 29, 36, 43, 53, and 73 (end of study) for all animals remaining on study. Images were analyzed using Living Image 4.7.1 (PerkinElmer, MA) software. Whole body fixed-volume regions of interest (ROIs) were placed on prone and supine images for each individual animal and labeled based on animal identification. Total flux (photons/sec) was calculated and exported for all ROIs to facilitate analyses between groups. The prone and supine ROIs were summed together to estimate whole body tumor burden. Subject ROIs were also placed over each mouse, and region-specific ROIs were placed over spine and hindlimbs for each animal. These ROIs were then quantified independent of the whole-body ROIs in order to calculate signal from only hind limbs or spine.
Primary and secondary efficacy endpoints were generated using in vivo whole body BLI and included tumor burden assessment as described herein. Endpoints included whole body BLI ratio T/C (where T=treatment group and C=vehicle control) measured on each imaging day and reported on day 36 and tumor growth delay as measured as time to tumor burden as pre-defined as a BLI signal of 1.0×10^9 p/s. Additional efficacy endpoints included tumor regression, tumor free survival (TFS), and median life span normalized to vehicle control (% increased life span); this latter endpoint was calculated based on the first day of treatment and not the day of implant. Overall survival was calculated based on animals remaining on study.
Additional measurements included body weights (3× weekly), daily clinical observations and necropsy following euthanasia. Pre-defined euthanasia criteria were related to disease progression and included >20% loss in body weight or disease-related morbidity such as hind limb paralysis, paresthesia, or other signs of severe CNS or musculoskeletal impairment.

As to `CC(C)C[C@H](NC(=O)[C@H](Cc1ccccc1)NC(=O)c1cnccn1)B(O)O` [bortezomib, [(1R)-3-Methyl-1-[[(2S)-1-oxo-3-phenyl-2-[(pyrazinylcarbonyl)amino]propyl]amino]butyl]boronic Acid, reference compound], for the setting “FIG. 21”, the “Change in body weight” value is “Loss of body weight”. Besides, the “Loss of weight of euthanized animal” value (bortezomib single agent, day 23) is listed as −24%. The Treatment related death (bortezomib single treatment group, initially 2 mg/kg, early euthanasia day 23) worked out at 11%. Moreover, the “Survival (animals remaining on study to end of study)” value (day 73, treatment discontinued day 53) was “none of the animals survived”. For the same compound, the “Incidence of complete or partial regression” value (end of dosing phase) is reported as “None”. Also, the “Tumor growth delay (time to BLI 1.0×10^9 p/s)” value (mAb 4320 4 mg/kg, bortezomib 1 mg/kg i.p. twice weekly) is 10.6 days. Under “mAb 4320 4 mg/kg, bortezomib 1 mg/kg i.p. twice weekly, day 14-53”, the “Increase in life span relative to vehicle control” value amounted to 40%. Also, under “mouse, in vivo”, the Tolerability / toxicity entry is “treatment related toxicity was observed”.
